{"source": "patent US10106627B2", "about": "“Process for the preparation of polymeric biosurfactants” (priority 2014, dated 2018)", "key": {"[1]": {"system": "Micrococcus luteus MTCC 2470", "assay": "Microtiter broth dilution MIC", "assay_type": "cell-based", "settings": "Micrococcus luteus MTCC 2470, 24 h, 35° C.", "procedure": "(§1) The antimicrobial activity of Microsan and M-EPS-Au-NP was determined using the microtiter broth dilution method [Kumar, C. G. and Mamidyala, S. K. (2011) Coll. Surf B: Biointerf. 84, 462-466]. Different bacterial pathogens (10^7 cfu ml^−1 cells) were inoculated in 100 μl of Muller-Hinton broth. Different concentrations of Microsan, M-EPS-Au-NP and Brevisan were added to each strain and incubated for 24 h at 35° C. After incubation, 40 μl of p-iodonitrotetrazolium (INT, Sigma) dye (0.02%, 20 mg INT dissolved in 100 ml of 40% dimethyl formamide was added to each well and incubated for 2 h. The reduction of p-iodonitrotetrazolium was spectroscopically measured at 450 nm using TRIAD multimode reader (Dynex Technologies, Inc., Chantilly, Va.) to determine the minimum inhibitory concentration (MIC) values. Commercially available surfactin (CAS 24730-31-2; Sigma-Aldrich) and laminarin (CAS No 9008-22-4; Sigma-Aldrich) used as positive controls were run in parallel for comparison. The MIC values of Microsan and M-EPS-Au-NP observed against the tested bacterial strains are shown in Table 3."}, "[2]": {"system": "Pseudomonas aeruginosa MTCC 2453", "assay": "Microtiter broth dilution MIC", "assay_type": "cell-based", "settings": "Pseudomonas aeruginosa MTCC 2453, 24 h, 35° C.", "procedure": "as §1"}, "[3]": {"system": "Bacillus subtilis MTCC 121", "assay": "Microtiter broth dilution MIC", "assay_type": "cell-based", "settings": "Bacillus subtilis MTCC 121, 24 h, 35° C.", "procedure": "as §1"}, "[4]": {"system": "Staphylococcus aureus MTCC 96", "assay": "Microtiter broth dilution MIC", "assay_type": "cell-based", "settings": "Staphylococcus aureus MTCC 96, 24 h, 35° C.", "procedure": "as §1"}, "[5]": {"system": "Staphylococcus aureus MLS16 MTCC 2940", "assay": "Microtiter broth dilution MIC", "assay_type": "cell-based", "settings": "Staphylococcus aureus MLS16 MTCC 2940, 24 h, 35° C.", "procedure": "as §1"}, "[6]": {"system": "Escherichia coli MTCC 739", "assay": "Microtiter broth dilution MIC", "assay_type": "cell-based", "settings": "Escherichia coli MTCC 739, 24 h, 35° C.", "procedure": "as §1"}, "[7]": {"system": "Klebsiella planticola MTCC 530", "assay": "Microtiter broth dilution MIC", "assay_type": "cell-based", "settings": "Klebsiella planticola MTCC 530, 24 h, 35° C.", "procedure": "as §1"}, "[8]": {"system": "erythrocytes", "assay": "Erythrocyte hemolysis assay (H2O2)", "assay_type": "cell-based", "settings": "Erythrocyte, 0.5 h; human erythrocytes, H2O2, 37° C., 30 min; read-out: EC50 erythrocyte hemolysis inhibition", "procedure": "(§2) The antioxidant activity of Microsan from Microbacterium sp. strain BS-2 and Brevisan from Brevibacillus sp. strain BS-207 in cell free system was measured by its inhibitory activity on the generation of DPPH free radicals, superoxide anions (O^2−), lipid peroxidation and erythrocyte hemolysis. The DPPH free radical scavenging assay was performed using 2,2-diphenyl-1-picrylhydrazyl (DPPH) free radical scavenging method [Ara. N. and Hasan, N. (2009) Res. J. Med. Medical Sci. 4, 107-110]. Different concentrations of Microsan and Brevisan were mixed individually with 150 μl of 160 μM methanolic solution of DPPH and incubated at 35° C. for 30 min in dark. The effective concentration (EC50) was calculated by measuring the absorbance of the samples at 517 nm. The superoxide anion scavenging was measured using phenazine methosulfate-nicotinamide adenine dinucleotide (PMS/NADH) method as previously described [Liu, F., Ooi, V. E. and Chang, S. T. (1997) Life Sci. 60, 763-771]. The lipid peroxidation assay was performed using the previously described method [Zhang, Q., Yu, P., Li, Z., Zhang, H., Xu, Z. and Li, P. (2003) J. Appl. Phycol. 15, 305-310] which is based on measuring the lipid peroxide decomposed product malondialdehyde (MDA). […] Samples were incubated at 37° C. for 30 min and the absorbance was measured at 540 nm. […]"}, "[9]": {"assay": "Superoxide anion scavenging (PMS/NADH method)", "assay_type": "biochemical", "settings": "cell free", "procedure": "as §2"}, "[10]": {"assay": "DPPH free radical scavenging assay (cell free)", "assay_type": "biochemical", "settings": "35° C., 30 min", "procedure": "as §2"}, "[11]": {"assay": "Lipid peroxidation assay (malondialdehyde)", "assay_type": "biochemical", "settings": "cell free", "procedure": "as §2"}}, "note": "*1 amine or outer side, *2 acyl side, *3 side chain or, on linkers, in order; H or OH if unused. Where a SMILES comes first, the peptide text is derived from it. Bridges are numbered along the chain shown (N, C = ends). [ ]: non-standard residue; d: D form. X1 = CC(C)CCCCCCCCC[C@H](CC(=O)[*:1])O[*:2]", "data": [{"compound": "CC(C)CCCCCCCCC[C@@H]1CC(=O)N[C@@H](CCC(=O)O)C(=O)N[C@@H](CC(C)C)C(=O)N[C@H](CC(C)C)C(=O)N[C@@H](C(C)C)C(=O)N[C@@H](CC(=O)O)C(=O)N[C@H](CC(C)C)C(=O)N[C@@H](CC(C)C)C(=O)O1", "note": "[Surfactin] (EL[dL]VD[dL]L; linker N-C via X1)", "values": [{"measurement": "MIC", "setting": "[1]; MTCC2470, read-out: Minimum inhibitory concentration (MIC)", "value": 18.8, "unit": "µg/mL"}, {"measurement": "MIC", "setting": "[2]; MTCC2453, read-out: Minimum inhibitory concentration (MIC)", "value": 18.8, "unit": "µg/mL"}, {"measurement": "MIC", "setting": "[3]; MTCC121, read-out: Minimum inhibitory concentration (MIC)", "value": 4.68, "unit": "µg/mL"}, {"measurement": "MIC", "setting": "[4]; MTCC96, read-out: Minimum inhibitory concentration (MIC)", "value": 9.37, "unit": "µg/mL"}, {"measurement": "MIC", "setting": "[5]; MTCC2940, read-out: Minimum inhibitory concentration (MIC)", "value": 18.8, "unit": "µg/mL"}, {"measurement": "MIC", "setting": "[6]; MTCC739, read-out: Minimum inhibitory concentration (MIC)", "value": 9.37, "unit": "µg/mL"}, {"measurement": "MIC", "setting": "[7]; MTCC530, read-out: Minimum inhibitory concentration (MIC)", "value": 9.37, "unit": "µg/mL"}]}, {"compound": "O=C1O[C@H]([C@@H](O)CO)C(O)=C1O", "note": "[ascorbic acid, reference compound]", "values": [{"measurement": "EC50", "setting": "[8]", "value": 120, "unit": "µg/mL"}, {"measurement": "EC50 superoxide anions (O^2−) scavenging", "setting": "[9]", "value": 21.1, "unit": "µg/mL"}, {"measurement": "EC50 DPPH free radical scavenging", "setting": "[10]", "value": 40.28, "unit": "µg/mL"}, {"measurement": "EC50 lipid peroxidation inhibition", "setting": "[11]", "value": 130.97, "unit": "µg/mL"}]}, {"compound": "Laminarin", "values": [{"measurement": "Minimum inhibitory concentration (MIC)", "setting": "[1]", "value": 4.68, "unit": "µg/mL"}, {"measurement": "Minimum inhibitory concentration (MIC)", "setting": "[2]", "value": 4.68, "unit": "µg/mL"}, {"measurement": "Minimum inhibitory concentration (MIC)", "setting": "[3]", "value": 9.37, "unit": "µg/mL"}, {"measurement": "Minimum inhibitory concentration (MIC)", "setting": "[4]", "value": 18.75, "unit": "µg/mL"}, {"measurement": "Minimum inhibitory concentration (MIC)", "setting": "[5]", "value": 37.5, "unit": "µg/mL"}, {"measurement": "Minimum inhibitory concentration (MIC)", "setting": "[6]", "value": 18.75, "unit": "µg/mL"}, {"measurement": "Minimum inhibitory concentration (MIC)", "setting": "[7]", "value": 4.68, "unit": "µg/mL"}]}]}
